{
  "source": "patent US10647654B2",
  "about": "“Glucose transport inhibitors and methods of using same” (OHIO UNIVERSITY, priority 2016, dated 2020)",
  "assay_type_in_all_cases": "cell-based",
  "key": {"A549 cells": {"test_system": "A549 cells", "experiment": "MTT cell proliferation assay in A549 lung cancer cells", "details": "Homo sapiens, DMSO treated cells as negative control, read-out: Cell Growth Inhibition in A549 Cells (at 30 μM)", "procedure": "(§1) Compounds EKB-1, EKB-2, EKB-3, EKB-4, JDB-1, and JDB-2 were assayed for their ability to inhibit glucose uptake and cell growth in A549 lung cancer cell lines. A standard glucose uptake assay may be used to evaluate glucose uptake inhibition, and an MTT cell proliferation assay may be used to evaluate cancer cell growth inhibition. […] DMSO treated cells served as the negative control. […] Again, DMSO treated cells served as the negative control."}, "[1]": {"test_system": "basal glucose transport in A549 cells", "experiment": "standard glucose uptake assay in A549 lung cancer cells", "details": "Homo sapiens, DMSO treated cells as negative control", "procedure": "as §1"}, "H1299 cells": {"test_system": "H1299 cells", "experiment": "MTT cell proliferation assay in H1299 lung cancer cells", "details": "Homo sapiens, NCI-H1299, DMSO treated cells as negative control, read-out: Cell Growth Inhibition in H1299 Cells (at 30 μM)", "procedure": "(§2) Compounds EKB-3 and EKB-4 were assayed for their ability to inhibit glucose uptake and cell growth in H1299 lung cancer cell lines. A standard glucose uptake assay may be used to evaluate glucose uptake inhibition, and an MTT cell proliferation assay may be used to evaluate cancer cell growth inhibition. […] DMSO treated cells served as the negative control. […] Again, DMSO treated cells served as the negative control. The glucose uptake inhibition and cell growth inhibition of comparative compound WZB-134 in H1299 cells is also provided in Table 2."}, "[2]": {"test_system": "basal glucose transport in H1299 cells", "experiment": "standard glucose uptake assay in H1299 lung cancer cells", "details": "Homo sapiens, NCI-H1299, DMSO treated cells as negative control", "procedure": "as §2"}},
  "data": [
    {"compound": "COC(=O)C(Oc1cc(Cl)ccc1OCc1cccc(O)c1)c1cccc(O)c1", "note": "(stereo not shown) [EKB-1]", "values": [
      {"measurement": "inhibition at 30 µM", "setting": "A549 cells", "result": 62.2, "unit": "%"},
      {"measurement": "inhibition at 30 µM", "setting": "[1]", "result": 54.3, "unit": "%"}
    ]},
    {"compound": "COC(=O)C(Oc1ccc(Cl)cc1OCc1cccc(O)c1)c1cccc(O)c1", "note": "(stereo not shown) [EKB-2]", "values": [
      {"measurement": "inhibition at 30 µM", "setting": "A549 cells", "result": 51.5, "unit": "%"},
      {"measurement": "inhibition at 30 µM", "setting": "[1]", "result": 56.1, "unit": "%"}
    ]},
    {"compound": "OCC(Oc1ccc(Cl)cc1OCc1cccc(O)c1)c1cccc(O)c1", "note": "(stereo not shown) [EKB-3]", "values": [
      {"measurement": "inhibition at 30 µM", "setting": "A549 cells", "result": 55.5, "unit": "%"},
      {"measurement": "inhibition at 30 µM", "setting": "[1]", "result": 62.8, "unit": "%"},
      {"measurement": "inhibition at 30 µM", "setting": "H1299 cells", "result": 54, "unit": "%"},
      {"measurement": "inhibition at 30 µM", "setting": "[2]", "result": 90.5, "unit": "%"}
    ]},
    {"compound": "COC(=O)C(Oc1cc(Cl)ccc1OCc1cccc(O)c1)c1cccc(OC)c1", "note": "(stereo not shown) [JDB-1]", "values": [
      {"measurement": "inhibition at 30 µM", "setting": "A549 cells", "result": 24.6, "unit": "%"},
      {"measurement": "inhibition at 30 µM", "setting": "[1]", "result": 19.7, "unit": "%"}
    ]},
    {"compound": "COc1cccc(C(CO)Oc2cc(Cl)ccc2OCc2cccc(O)c2)c1", "note": "(stereo not shown) [JDB-2]", "values": [
      {"measurement": "inhibition at 30 µM", "setting": "A549 cells", "result": 39.7, "unit": "%"},
      {"measurement": "inhibition at 30 µM", "setting": "[1]", "result": 34.8, "unit": "%"}
    ]},
    {"compound": "Oc1cccc(COc2cccc(F)c2OCc2cccc(O)c2)c1", "note": "[WZB-134, reference compound]", "values": [
      {"measurement": "inhibition at 30 µM", "setting": "A549 cells", "result": 10, "unit": "%"},
      {"measurement": "inhibition at 30 µM", "setting": "[1]", "result": 96, "unit": "%"},
      {"measurement": "inhibition at 30 µM", "setting": "H1299 cells", "result": 10.6, "unit": "%"},
      {"measurement": "inhibition at 30 µM", "setting": "[2]", "result": 92.5, "unit": "%"}
    ]}
  ]
}
